Patent publication US12435308B2, “Immunomodulation by amniotic fluid mesenchymal stem cells” (Amniotics AB, priority 2020, dated 2025)

What was measured:
[1] = tested on: human PBMCs activated with anti-CD3/anti-CD28; test: PBMC:MSC co-culture ex vivo assay, FACS analysis (cell composition)
Method: (§1) For ex vivo analysis, freshly isolated human PBMCs, pooled from three donors, were activated with anti-CD3/anti-CD28 at 10 μg/ml and 5 μg/ml respectively in presence of MSCs ex vivo for 24-72 hours. Following activation, cells were analyzed for effects on cellular composition and cell proliferation using CFSE. In addition, supernatants were analyzed for cytokine levels using Luminex.
(§2) In this example, Peripheral Blood Mononuclear Cells (PBMCs) were isolated from leucocyte concentrate from three different donors (acquired from Blodcentralen, Lunds Universitetssjukhus, Lund, Sweden) through gradient centrifugation using Ficoll. Red blood cells (RBCs) were lysed using lysis buffer (3 min, RT), cells were washed and the isolated PBMCs were pooled. Cell concentration was determined using a Scepter cell counter (Millipore Merck, MA, USA). Cells were diluted to 1×10^7 cells/ml in PBS. Pooled PBMCs were split into 2 different tubes. Pool one was stained with CFSE at 5 μM for 5 minutes (dark, RT). CFSE stained cells were washed with an equal volume of FBS to stop the reaction and washed again with PBS. Pool 2 was left in PBS.
(§3) All cells (PBMCs and MSCs) were diluted in two different cell culture media (M3 and M4) at 2*10^6 cells/ml. Media was supplemented with anti-CD28 at 5 μg/ml. Cells were added to anti-CD3 (10 μg/ml) coated U bottom cell culture plates according to layout below, 200 μl/well in different PBMC:MSC ratios (1:10, 1:5, 1:2.5, 1:0 and 0:1).
(§4) Included were also controls (stimulated and unstimulated PBMCs) and two reference drugs, e.g., cyclosporine (CsA) and Prednisolone. When plating controls, cells were spun down and diluted in media 3 or 4 at 4*10^6 cells/ml. 100 μl PBMCs were added per well. CsA was added at a final concentration of 10 μg/ml and Prednisolone was added at a final concentration of 125 nM. Medium was added to unstimulated control wells. Control cells (AD-MSC) were also analyzed. Cells were incubated for 24-72 hours at 37° C., 5% CO2.
Following 24 hours of incubation, cells in FACS/Luminex plates were stained with CD73, CD4, CD8, CD80, CD206, CD163 and PD-1. Briefly, cells were transferred to V bottom plates and centrifuged at 360×g for 2 min. Supernatant was transferred to a storage plate and put in −20° C. until analysis using Luminex. Cells were washed in PBS, centrifuged at 360×g for 2 min at 4° C. Supernatant was flicked off and surface markers were added. Cells were incubated at +4° C. for 20 minutes (dark). After incubation, cells were washed 1× in PBS, centrifuged at 360×g for 2 min at 4° C. Cells were resuspended in PBS and analyzed using the Attune Nxt flow cytometer. Compensation was performed using beads—AbC Total Compensation capture beads and negative beads. Since compensation was done using beads, FSC and SSC were changed before analyzing samples and adjusted to suit cells.

[2] = tested on: human PBMCs activated with anti-CD3/anti-CD28; test: PBMC:MSC co-culture ex vivo assay, FACS analysis (CFSE proliferation)
Method: as §1, §2, §3, §4
To continue with this example, after 72 hours of incubation, CFSE stained cells were stained with CD4, CD8, CD80, CD206 and CD163. Briefly, cells were transferred to V bottom plates, centrifuged at 360×g for 2 min. Cells were washed in PBS, centrifuged at 360×g for 2 min at 4° C. Supernatant was flicked off and surface markers were added. Cells were incubated at +4° C. for 20 minutes. After incubation, cells were washed 1× in PBS, centrifuged at 360×g for 2 min at 4° C. Cells were resuspended in PBS and analyzed using flow cytometry. Compensation was performed using beads—AbC Total Compensation capture beads and negative beads. Since compensation was done using beads, FSC and SSC were changed before analyzing samples and adjusted to suit cells.
The inhibitory effect was calculated according to the two formulas below: […]

[3] = CFSE plates, 72 hours of incubation

For `C[C@]12C=CC(=O)C=C1CC[C@@H]1[C@@H]2[C@@H](O)C[C@@]2(C)[C@H]1CC[C@]2(O)C(=O)CO` [Prednisolone], which “% cytotoxic T cells (CD8+ lymphocytes)” value [1] is on record?
The value was “lower levels”.

What about the “expression level of CD73+M1” value ([1]; 24 hours of incubation) of the same compound?
The value was “lower expression level”.

What about the “expression level of CD73+M2” value ([1]; 24 hours of incubation) of the same compound?
Its value is “lower expression level”.

And the “% T helper cells (CD4+ lymphocytes)” value ([1]; 24 hours of incubation, versus control)?
Its value is “higher levels”.

And the “macrophage polarization (shift towards M2)” value ([1]; assay controls, cell composition)?
Its value is “shift towards M2”.

What about the “effect on cytotoxic T cells” value [2] of the same compound?
Its value is “no effect”.

What about the “effect on M1 expression level” value [2, 3] of the same compound?
The value was “no effect”.

What about the “effect on M2 expression level” value [2, 3] of the same compound?
Its value is “no effect”.

What about the “effect on T helper cells” value [2, 3] of the same compound?
The value was “no effect”.
